Assays:
[1] = target: ligand binding domain of thyroid hormone receptor beta (Homo sapiens (Human), UniProt P10828); test: Thyroid hormone receptor TR-FRET binding assay (TRβ LBD); details: TRβ LBD 2 nM
Procedure: (§1) TR-FRET binding assay was used to test representative compounds herein.
(§2) The ligand binding domain of thyroid hormone receptor alpha and the ligand binding domain of thyroid hormone receptor beta with GST tag were purchased from Invitrogen. Biotin-SRC2-2 coactivator peptide was purchased from Sangon Biotech, Europium anti-GST and Streptavidin-D2 was from Cisbio.
(§3) Five microliters of 4× compound serial dilution was added in the 384-well plate, white, low volume, round-bottom assay plate. […] Centrifuge the assay plates at 1000 g for 1 min and incubate 1 hr at RT, protected from light. […] Calculate EC50 by fitting % Activity values and log of compound concentrations to nonlinear regression (dose response—variable slope) with Graphpad 5.0.

[2] = target: ligand binding domain of thyroid hormone receptor alpha (Homo sapiens (Human), UniProt P10827); test: Thyroid hormone receptor TR-FRET binding assay (TRα LBD); details: TRα LBD 4 nM
ligand binding domain of thyroid hormone receptor alpha, sequence (P10827 other isoform, or with tags, fused parts or gaps del 1-162, other chains not shown): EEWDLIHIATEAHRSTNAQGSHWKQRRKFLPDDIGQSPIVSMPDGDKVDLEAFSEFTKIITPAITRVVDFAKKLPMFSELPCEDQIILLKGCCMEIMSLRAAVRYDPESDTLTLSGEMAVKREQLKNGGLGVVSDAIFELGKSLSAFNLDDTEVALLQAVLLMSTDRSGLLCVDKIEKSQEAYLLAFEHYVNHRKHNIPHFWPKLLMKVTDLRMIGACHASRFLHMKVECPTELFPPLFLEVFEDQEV
Procedure: as §1, §2, §3

[3] = target: TRβ-GAL4 binding domain chimeric receptors (Homo sapiens (Human), UniProt P10828); test: Thyroid hormone receptor cell assay (GAL4 luciferase reporter in HEK293-LUC cells); format: cell-based
TRβ-GAL4 binding domain chimeric receptors, sequence (P10828 217-461, stated change not applied): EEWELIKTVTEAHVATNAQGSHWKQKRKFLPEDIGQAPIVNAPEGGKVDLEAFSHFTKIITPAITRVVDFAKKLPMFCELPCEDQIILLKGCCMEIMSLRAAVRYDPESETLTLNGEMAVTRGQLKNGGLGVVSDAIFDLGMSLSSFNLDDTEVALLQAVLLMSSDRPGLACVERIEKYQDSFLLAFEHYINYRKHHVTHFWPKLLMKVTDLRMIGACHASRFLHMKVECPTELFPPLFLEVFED
Excerpt: TRα-LBD or TRβ-LBD, coding sequence was inserted into pBIND expression vector (Promega, E1581) to express TRβ-GAL4 binding domain chimeric receptors. This expression vector was transfected into HEK293-LUC host cells with reporter vector (pGL4.35 which carry a stably integrated GAL4 promoter driven luciferase reporter gene). Upon agonist binding to the corresponding TRa-GAL4 or TRb-GAL4 chimeric receptor, the chimeric receptor binds to the GAL4 binding sites and stimulates the reporter gene.
Seed 2.5×10^6 HEK293-LUC cells into a 60 mm dish and incubated for 16 h at 37° C. under 5% CO2 atmosphere. Mix 12 microliters of Lipo LTX reagent in 250 microliters of Opti-MEM Medium by inversion. Mix 6 ug of DNA in 250 uL of Opti-MEM medium, then add 6 uL of Lipo PLUS Reagent. Add diluted DNA to each tube of diluted Lipo LTX Reagent (1:1 ratio), and mix by Pipettor and incubate at room temperature for 10 min. The reagent mixture was added to a 60 mm dish, incubated with cells for 4-7 h at 37 degrees under 5% CO2 atmosphere.
75 nL compound was added into 384 well assay plate using ECHO550 and then add HEK293-LUC cells (transfected, 17,000 cells/well) into the plate using phenol red-free DMEM containing 5% charcoal/dextran-treated FBS and incubated for 16-20 h at […] under 5% CO2 atmosphere. Add 25 uL of Steady-Glo Luciferase Assay Reagent into each well. Shake for 5 min and then record the luminescence value on Envision 2104 plate reader.

ligand binding domain of thyroid hormone receptor beta, sequence (P10828 217-461): as the sequence (P10828 217-461, stated change not applied) above

| EC50 [1] [nM] | EC50 [2] [nM] | EC50 [3] [nM] | Compound |
| --- | --- | --- | --- |
| 120 | 1350 | – | Cc1nn(-c2cc(Br)c(Oc3cc(C4CCC4)c(=O)[nH]n3)c(Br)c2)c(=O)[nH]c1=O [Compound 13] |
| 300 | 14600 | 460 | Cc1nn(-c2cc(Cl)c(Oc3cc([C@@H](C)c4ccccc4)c(=O)[nH]n3)c(Cl)c2)c(=O)[nH]c1=O (single isomer, unassigned) [Compound 71] |
| 60 | 560 | 180 | Cc1nn(-c2cc(Br)c(Oc3cc(C4CC4)c(=O)[nH]n3)c(Br)c2)c(=O)[nH]c1=O [Compound 23] |
| 80 | 1270 | 11500 | N#Cc1nn(-c2cc(Cl)c(Oc3cc(Cc4ccc(O)cc4)c(=O)[nH]n3)c(Cl)c2)c(=O)[nH]c1=O [Compound 33] |
| 240 | 90000 | – | N#Cc1nn(-c2cc(Cl)c(Oc3cc(Cc4ccccc4)c(=O)[nH]n3)c(C(F)(F)F)c2)c(=O)[nH]c1=O [Compound 64] |
| 1210 | – | – | N#Cc1nn(-c2cc(Cl)c(Oc3ccc4[nH]cc(C(N)=O)c4c3)c(Cl)c2)c(=O)[nH]c1=O [Compound 87] |
| 290 | – | 13600 | CC(c1cc(Oc2c(Cl)cc(-n3nc(C#N)c(=O)[nH]c3=O)cc2Cl)n[nH]c1=O)C1CCCCC1 (single isomer, unassigned) [Compound 92] |
| > 90000 | > 90000 | – | CC(=O)N1CCC(c2cc(Oc3c(Cl)cc(-n4nc(C#N)c(=O)[nH]c4=O)cc3Cl)n[nH]c2=O)CC1 [Compound 19] |
| 780 | 7820 | – | Cc1nn(-c2cc(Cl)c(Oc3cc(Cc4cccc(F)c4)c(=O)[nH]n3)c(Cl)c2)c(=O)[nH]c1=O [Compound 68] |
| 660 | – | – | CC(C)c1c[nH]c2ncc(Oc3c(Cl)cc(-n4nc(C#N)c(=O)[nH]c4=O)cc3Cl)cc12 [Compound 84] |
| 90 | 1400 | 200 | Cc1nn(-c2cc(Br)c(Oc3cc(C4CCCC4)c(=O)[nH]n3)c(Br)c2)c(=O)[nH]c1=O [Compound 22] |
| 3470 | 90000 | – | Cc1nn(-c2cc(Cl)c(Oc3cc([C@H](C)c4ccccc4)c(=O)[nH]n3)c(Cl)c2)c(=O)[nH]c1=O (single isomer, unassigned) [Compound 72] |
| 230 | 3200 | – | Cc1nn(-c2cc(Cl)c(Oc3cc(Cc4ccc(Cl)cc4)c(=O)[nH]n3)c(Cl)c2)c(=O)[nH]c1=O [Compound 49] |
| 11700 | > 90000 | – | CC(C)c1cc(Oc2c(Cl)cc(-n3nc(C4CC4)c(=O)[nH]c3=O)cc2Cl)n[nH]c1=O [Compound 36] |
| 4160 | > 10000 | – | Cc1cc(-n2nc(C#N)c(=O)[nH]c2=O)c(F)c(C)c1Oc1cc(C(C)C)c(=O)[nH]n1 [Compound 45] |
| 370 | 5820 | 7380 | N#Cc1nn(-c2cc(Cl)c(Oc3cc(C4CC4)c(=O)[nH]n3)c(Br)c2)c(=O)[nH]c1=O [Compound 7] |
| – | – | 5500 | CC(c1cc(Oc2c(Cl)cc(-n3nc(C#N)c(=O)[nH]c3=O)cc2C(F)(F)F)n[nH]c1=O)C1CCCCC1 (single isomer, unassigned) [Compound 98] |
| 240 | – | – | CC(c1ccccc1)c1cc(Oc2c(Cl)cc(-n3nc(C#N)c(=O)[nH]c3=O)cc2C(F)(F)F)n[nH]c1=O (single isomer, unassigned) [Compound 95] |
| 10 | 1370 | – | Cc1nn(-c2cc(Cl)c(Oc3cc(Cc4ccc(O)cc4)c(=O)[nH]n3)c(Cl)c2)c(=O)[nH]c1=O [Compound 53] |
| 810 | 36700 | 12200 | N#Cc1nn(-c2cc(Cl)c(Oc3cc(C4CCCCC4)c(=O)[nH]n3)c(Cl)c2)c(=O)[nH]c1=O [Compound 4] |
| 180 | – | 2760 | CC(C)c1n[nH]c2ccc(Oc3c(Cl)cc(-n4nc(C#N)c(=O)[nH]c4=O)cc3Cl)cc12 [Compound 90] |
| > 90000 | > 90000 | – | N#Cc1nn(-c2cc(Cl)c(Oc3cc(Cc4cccc(O)c4)c(=O)[nH]n3)c(Cl)c2)c(=O)[nH]c1=O [Compound 34] |
| 1050 | 43400 | – | Cc1nn(-c2cc(Cl)c(Oc3cc(C(C)C4CCCCC4)c(=O)[nH]n3)c(Cl)c2)c(=O)[nH]c1=O (single isomer, unassigned) [Compound 76] |
| 1070 | 8570 | – | Cc1nn(-c2cc(Cl)c(Oc3cc(CC4CCC(O)CC4)c(=O)[nH]n3)c(Cl)c2)c(=O)[nH]c1=O (centres unmarked) [Compound 55] |

| EC50 [1] [nM] | EC50 [2] [nM] | EC50 [3] [nM] | Compound |
| --- | --- | --- | --- |
| 2330 | 90000 | – | N#Cc1nn(-c2cc(Cl)c(Sc3cc(Cc4ccccc4)c(=O)[nH]n3)c(Cl)c2)c(=O)[nH]c1=O [Compound 80] |
| > 10000 | > 10000 | – | N#Cc1nn(-c2cc(Cl)c(Oc3cc(-c4ccccc4)c(=O)[nH]n3)c(Cl)c2)c(=O)[nH]c1=O [Compound 24] |
| 810 | 26900 | – | Cc1nn(-c2cc(Br)c(Oc3cc(C(=O)c4ccccc4)c(=O)[nH]n3)c(Br)c2)c(=O)[nH]c1=O [Compound 78] |
| > 90000 | – | – | CC(O)(CO)c1ccc(Cc2cc(Oc3c(Cl)cc(-n4nc(C#N)c(=O)[nH]c4=O)cc3Cl)n[nH]c2=O)cc1 (centres unmarked) [Compound 86] |
| 430 | – | 4350 | CC(C)c1nn(-c2c(Cl)cc(-n3nc(C#N)c(=O)[nH]c3=O)cc2Cl)c2ccc(O)cc12 [Compound 91] |
| 42400 | 90000 | – | CC(C)c1cc(Oc2c(Cl)cc(CCP(=O)(O)O)cc2Cl)n[nH]c1=O [Compound 70] |
| – | – | 18500 | CC(c1cc(Oc2c(Cl)cc(-n3nc(C#N)c(=O)[nH]c3=O)cc2C(F)(F)F)n[nH]c1=O)C1CCCCC1 (single isomer, unassigned) [Compound 99] |
| 3210 | – | – | CC(c1ccccc1)c1cc(Oc2c(Cl)cc(-n3nc(C#N)c(=O)[nH]c3=O)cc2Cl)n[nH]c1=O (single isomer, unassigned) [Compound 88] |
| 90000 | 90000 | – | N#Cc1nn(-c2cc(Cl)c(Oc3cc(C4CCN(Cc5ccccc5)CC4)c(=O)[nH]n3)c(Cl)c2)c(=O)[nH]c1=O [Compound 77] |
| 500 | – | – | CC(c1ccccc1)c1cc(Oc2c(Cl)cc(-n3nc(C#N)c(=O)[nH]c3=O)cc2C(F)(F)F)n[nH]c1=O (racemic) [Compound 94] |
| > 90000 | > 90000 | – | N#Cc1nn(-c2cc(Cl)c(Oc3cc(CC4CCC(O)C4)c(=O)[nH]n3)c(Cl)c2)c(=O)[nH]c1=O (centres unmarked) [Compound 51] |
| > 10000 | > 10000 | – | N#Cc1nn(-c2cc(Cl)c(Oc3cc(CCc4ccccc4)c(=O)[nH]n3)c(Cl)c2)c(=O)[nH]c1=O [Compound 26] |
| 1560 | – | – | CC(c1cc(Oc2c(Cl)cc(-n3nc(C#N)c(=O)[nH]c3=O)cc2Cl)n[nH]c1=O)C1CCCCC1 (single isomer, unassigned) [Compound 93] |
| 8800 | > 90000 | – | N#Cc1nn(-c2cc(Cl)c(Oc3cc(CC4CCC(O)CC4)c(=O)[nH]n3)c(Cl)c2)c(=O)[nH]c1=O (centres unmarked) [Compound 50] |
| 360 | – | – | CC(c1ccccc1)c1cc(Oc2c(Cl)cc(-n3nc(C#N)c(=O)[nH]c3=O)cc2Cl)n[nH]c1=O (single isomer, unassigned) [Compound 89] |
| > 90000 | – | – | Cc1cc(OCP(=O)(O)O)cc(C)c1Cc1cc(C(C)C)c(=O)[nH]n1 [Compound 85] |
| 2620 | 90000 | – | COc1ccccc1Cc1cc(Oc2c(Cl)cc(-n3nc(C)c(=O)[nH]c3=O)cc2Cl)n[nH]c1=O [Compound 69] |
| 190 | 1170 | – | Cc1nn(-c2cc(Cl)c(Oc3cc(CC4CCCC4)c(=O)[nH]n3)c(Cl)c2)c(=O)[nH]c1=O [Compound 59] |
| 1630 | 90000 | – | N#Cc1nn(-c2cc(Cl)c(Oc3cc(Cc4ccccc4O)c(=O)[nH]n3)c(Cl)c2)c(=O)[nH]c1=O [Compound 57] |
| 150 | 15600 | – | Cc1nn(-c2cc(Cl)c(Oc3cc(C(C)C4CCCCC4)c(=O)[nH]n3)c(Cl)c2)c(=O)[nH]c1=O (centres unmarked) [Compound 61] |
| > 10000 | > 10000 | – | N#Cc1nn(-c2ccc(Oc3cc(C4CC4)c(=O)[nH]n3)c(Cl)c2)c(=O)[nH]c1=O [Compound 6] |
| 840 | – | – | CC(c1ccccc1)c1cc(Oc2c(Cl)cc(-n3nc(C#N)c(=O)[nH]c3=O)cc2C(F)(F)F)n[nH]c1=O (single isomer, unassigned) [Compound 96] |
| 260 | – | – | CC(c1cc(Oc2c(Cl)cc(-n3nc(C#N)c(=O)[nH]c3=O)cc2C(F)(F)F)n[nH]c1=O)C1CCCCC1 (racemic) [Compound 97] |
| > 90000 | > 90000 | – | CC(C)c1cc(Oc2c(Cl)cc(-n3nc(C(C)C)c(=O)[nH]c3=O)cc2Cl)n[nH]c1=O [Compound 38] |
